Reference: patent publication US11084805B2, “Compound derived from allulose” (CJ CHEILJEDANG CORPORATION, priority 2019, dated 2021)

Assay: Evaluation of acid resistance of allulose disaccharide (residual percentage by HPLC after storage in citrate buffer)
Format: physicochemical
Settings: for Residual percentage: 1% (w/v) in 10 mM citrate buffer
Description: 1% D1 solution was prepared (in 10 mM citrate buffer) to measure acid resistance thereof. Sucrose that is a disaccharide having a similar structure and D2 that is another allulose disaccharide were used as controls.
The pH of the solution was adjusted to pH 2.0, 4.0, and 6.0 using 10 mM citrate and sodium citrate buffers. The prepared solutions were respectively stored at room temperature ([…]), and purities of remaining substances were identified by HPLC analysis (HPX-87C column, 80° C., 60 min, 20 μl) at 0 hour, 24 hours, 72 hours, and 120 hours. The concentration of each substance was 1% (w/v) and reaction temperature was 40° C.
Those results which show statistically significant difference under the same experimental conditions were indicated by different alphabets.
The measured results with respect to storage time were analyzed using analysis of variance (ANOVA) as statistical analysis and tukey's multiple range test as post hoc analysis, and statistical significance was set to p<0.05.

| SMILES | Residual percentage (pH 2, 40° C., 0 hr) [%] | Residual percentage (pH 2, 40° C., 24 hr) | Residual percentage (pH 2, 40° C., 72 hr) | Residual percentage (pH 2, 40° C., 120 hr) | Residual percentage (pH 4, 40° C., 0 hr) [%] | Residual percentage (pH 4, 40° C., 24 hr) | Residual percentage (pH 4, 40° C., 72 hr) | Residual percentage (pH 4, 40° C., 120 hr) | Residual percentage (pH 6, 40° C., 0 hr) [%] | Residual percentage (pH 6, 40° C., 24 hr) [%] | Residual percentage (pH 6, 40° C., 72 hr) [%] | Residual percentage (pH 6, 40° C., 120 hr) | Acid resistance compared with D2 and sucrose (at pH 6 or less) | Residual percentage of D1 relative to that of sucrose (higher than) (pH 2, after 120 hours) |
| --- | --- | --- | --- | --- | --- | --- | --- | --- | --- | --- | --- | --- | --- | --- |
| OC[C@H]1O[C@@](CO)(O[C@H]2O[C@H](CO)[C@@H](O)[C@H](O)[C@H]2O)[C@@H](O)[C@@H]1O [Sucrose, reference compound] | 100.0 | 81.2^B % | 51.9^B % | 34.4^B % | 100.0 | 98.1^A % | 95.8^B % | 92.9^B % | 100.0 | 100.0 | 99.9 | 99.58^A* % |  |  |
| OCC1(O)O[C@H](CO[C@]2(CO)OC[C@@H](O)[C@@H](O)[C@H]2O)[C@@H](O)[C@H]1O (stereo partly drawn) [D1, (2S,3R,4R,5R)-2-(hydroxymethyl)-2-(((2R,3S,4R)-3,4,5-trihydroxy-5-(hydroxymethyl)tetrahydrofuran-2-yl)methoxy)tetrahydro-2H-pyran-3,4,5-triol] | 100.0 | 85.9^A % | 58.2^A % | 44.6^A % | 100.0 | 99.0^A % | 98.8^A % | 97.9^A % | 100.0 | 100.0 | 100.0 | 99.96^A* % | higher acid resistance than that of D2 and sucrose | about 130% |
